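48-hour exposure; five concentrations; linearly interpolated endpoints. GI50: concentration for 50% inhibition of growth. TGI is the concentration that stops growth completely.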
How the values were obtained:
Assay in all cases: NCI anticancer screen, dose series, 48 h
DMS 273 small cell lung = tested on: DMS 273 small cell lung
ACHN renal = tested on: ACHN renal
SF-268 CNS = tested on: SF-268 CNS
A549 NSCLC = tested on: A549 NSCLC
SNB-78 CNS = tested on: SNB-78 CNS
M19-MEL melanoma = tested on: M19-MEL melanoma
NCI-H226 lung = tested on: NCI-H226 lung
UACC-257 melanoma = tested on: UACC-257 melanoma
KM20L2 colon = tested on: KM20L2 colon
CAKI-1 renal = tested on: CAKI-1 renal
HCC-2998 colon = tested on: HCC-2998 colon
NCI/ADR-RES ovarian = tested on: NCI/ADR-RES ovarian

Row | SMILES | TGI (DMS 273 small cell lung) [µM] | TGI (ACHN renal) [µM] | TGI (SF-268 CNS) [µM] | TGI (A549 NSCLC) [µM] | TGI (SNB-78 CNS) [µM] | TGI (M19-MEL melanoma) [µM] | TGI (NCI-H226 lung) [µM] | TGI (UACC-257 melanoma) [µM] | TGI (KM20L2 colon) [µM] | TGI (CAKI-1 renal) [µM] | TGI (HCC-2998 colon) [µM] | TGI (NCI/ADR-RES ovarian) [µM] | GI50 (ACHN renal) [µM] | GI50 (SF-268 CNS) [µM] | GI50 (A549 NSCLC) [µM] | GI50 (NCI-H226 lung) [µM] | GI50 (UACC-257 melanoma) [µM] | GI50 (NCI/ADR-RES ovarian) [µM] | GI50 (CAKI-1 renal) [µM] | GI50 (HCC-2998 colon) [µM]
1 | CC1(C)CCCC2(C)[C@@H]1CC[C@]13C[C@](C)(CC[C@@H]21)[C@@H]3CO (stereo partly specified) | > 100 | > 100 | > 100 | > 100 | > 100 | > 100 | > 100 | > 100 | > 100 | > 100 | > 100 |  |  |  |  |  |  |  |  | 
2 | CCOC(=O)c1csc(NC(=O)CCN2CCOCC2)n1 |  | > 100 |  | > 100 |  |  |  | > 100 |  | > 100 | > 100 | > 100 |  |  |  |  |  |  |  | 
3 | COc1ccc2c(c1)C(=O)/C(=C/c1ccccc1)C2 |  |  |  |  |  |  | > 100 |  |  | 60.1 |  | 88.2 |  |  |  |  |  |  |  | 
4 | CCNc1nc2c(=O)n(C)c(=O)n(C)c2s1 |  | > 100 | > 100 | > 100 | > 100 | > 100 | > 100 | > 100 | > 100 |  | > 100 |  |  |  |  |  |  |  |  | 
5 | C=C1CC2(C)CCC(OC(=O)C3(C)OC3C)C(C)(OC(C)=O)C2CC1=C(C)C (stereo unspecified) |  | > 100 | > 100 | > 100 |  |  |  | > 100 |  |  | > 100 | > 100 |  |  |  |  |  |  |  | 
6 | CC12CCC3C(CCC4(O)C=CCCC34C=O)C1(O)CC(O)C2c1ccc(=O)oc1 (stereo unspecified) | 0.0712 |  | 0.0754 | 0.0646 | 0.97 | 0.264 | 0.369 | 0.478 | 0.267 | 0.0894 | 0.252 | 0.282 |  |  |  |  |  |  |  | 
7 | O=c1n(Cc2ccccc2)c2ccccc2n1CC1CS1 (stereo unspecified) | > 100 | > 100 | > 100 | > 100 |  | > 100 | > 100 |  | > 100 | > 100 | > 100 |  |  |  |  |  |  |  |  | 
8 | COc1cc(CN(C)N2C(=O)c3cccc4cc([N+](=O)[O-])cc(c34)C2=O)cc(OC)c1OC |  |  |  |  |  |  | > 100 |  |  | > 100 |  | > 100 |  |  |  |  |  |  |  | 
9 | O=C1CNC(=O)N1 | > 1120 |  | > 1120 | > 1120 | > 1120 | > 1120 | > 1120 | > 1120 | > 1120 | > 1120 | > 1120 | > 1120 |  |  |  |  |  |  |  | 
10 | O=C(NC/C=C/CO)c1ccccc1 | > 100 |  | > 100 | > 100 | > 100 | > 100 | > 100 | > 100 | > 100 |  | > 100 | > 100 |  |  |  |  |  |  |  | 
11 | Cc1cc(C)c(S(=O)(=O)N(CCCCCCN)OCCCON(CCCCCCN)S(=O)(=O)c2c(C)cc(C)cc2C)c(C)c1 |  | 13.1 | 3.42 | 3.24 |  |  |  | 3.27 |  | 3.7 |  | 34.6 |  |  |  |  |  |  |  | 
12 | ClCc1nnc2n1-c1ccc(Cl)cc1SC2 | 13 |  | 9.55 | 20.3 | 18.9 | 10.4 | 5.64 | 9.8 | 15.9 |  | 11 | 4.76 |  |  |  |  |  |  |  | 
13 | Fc1cc(C2=Nn3c(nnc3-c3cc(F)c(Cl)cc3Cl)SC2)c(Cl)cc1Cl |  | 90.9 | 61.3 | 83.5 |  |  | 36 | > 100 |  | 60.7 | > 100 | > 100 | 26.6 | 18.5 | 23.7 | 14.9 | 30.2 | 27.4 | 20.6 | 31.6

— PubChem BioAssay (NCI)
